Measurements taken from patent US7777070B2, “Acyloxyalkyl carbamate prodrugs of tranexamic acid, methods of synthesis and use” (XenoPort, Inc., priority 2005, dated 2010).
Like-named read-outs stand apart in the source and are kept apart here. Values belong to the compound of their own block, whether it stands above or below them.

Assays:
Caco-2 cells [1] = experiment: Caco-2 cellular permeability; settings: ratio of Papp apical to basolateral / basolateral to apical
Method: (§1) For example, passive permeability can be evaluated by examining the flux of a prodrug across a cultured polarized cell monolayer (e.g., Caco-2 cells).
(§2) Caco-2 cells obtained from continuous culture (passage less than 28) were seeded at high density onto Transwell polycarbonate filters. Cells were maintained with DMEM/10% fetal bovine serum, 1 mM nonessential amino acids, and 6 mM L-Gln, 5% CO2/95% O2, at 37° C. until the day of the experiment. Permeability studies were conducted at pH 6.5 apically (in 50 mM MES buffer containing 1 mM CaCl2, 1 mM MgCl2, 150 mM NaCl, 3 mM KCl, 1 mM NaH2PO4, 5 mM glucose) and pH 7.4 basolaterally (in Hanks' balanced salt solution containing 10 mM HEPES) in the presence of efflux pump inhibitors (250 μM MK-571 and 250 μM Verapamil). Inserts were placed in 12 or 24 well plates containing buffer and incubated for 30 min at 37° C. Prodrug (200 μM) was added to the apical or basolateral compartment (donor) and concentrations of prodrug and/or released parent drug in the opposite compartment (receiver) were determined at intervals over 1 hour using LC/MS/MS. Values of apparent permeability (Papp) were calculated using the equation: Papp=Vr(dC/dt)//(ACo) where Vr is the volume of the receiver compartment in mL; dC/dt is the total flux of prodrug and parent drug (μM/sec), determined from the slope of the plot of concentration in the receiver compartment versus time; C0 is the initial concentration of prodrug in μM; and A is the surface area of the membrane in cm^2.

[2] = cited from earlier work
[3] = cited from earlier work; remark: listed apart in the source
[4] = Pharmacokinetics of tranexamic acid after administration of tranexamic acid or prodrug to rats; format: in vivo, Sprague-Dawley rats; settings: for AUC(0-inf) / bioavailability / Cmax / half-life / Tmax / AUC(0-t) / F* (bioavailability of tranexamic acid) / AUCinf / AUCt / T1/2-λ: rat; for bioavailability / F* (bioavailability of tranexamic acid): versus i.v. tranexamic acid AUCinf 22.2 hr·μg/mL; for bioavailability: read-out: F* (bioavailability of tranexamic acid); for half-life: read-out: T1/2-λ (converted)
Method: Tranexamic acid or a tranexamic acid prodrug of the present disclosure was administered as an intravenous bolus injection (i.v.), by oral gavage (p.o.), or by intracolonic (i.c.) administration via an indwelling catheter in the ascending colon to groups of four to six adult male Sprague-Dawley rats (weight approximately 250 g). Animals were fasted overnight before the study and for 4 hours post-dosing and were conscious at the time of the experiment. When administered intravenously, tranexamic acid was administered as a solution in water at a dose equivalent to 16 mg (0.1 mmol) of tranexamic acid per kg body weight. Prodrugs were orally or intracolonically administered as a suspension in 0.5% methyl cellulose in 0.1% Tween 80 at a dose equivalent to 16 mg (0.1 mmol) of tranexamic acid per kg body weight. Blood samples (300 μL) were obtained via a jugular vein cannula at intervals over 8 hours after oral dosing. Blood was quenched immediately using methanol and then was frozen at −80° C. until analyzed.
The following procedure was used to prepared blood samples for analysis:
1. Rat blood (100 μL) was collected at different times into K2EDTA tubes, 300 μL of methanol, and the mixture was vortexed to mix the ingredients.
2. Blank rat blood (90 μL) was quenched with 300 μL of methanol. Then ten μL of a standard stock solution (0.04, 0.2, 1, 5, 25, and 100 μg/mL) were added to the tube individually. Then 20 μL of p-chlorophenylalanine (5 μg/mL in 50% methanol) was added to each tube to make up a final calibration standard (0.004, 0.02, 0.1, 0.5, 2.5, and 10 μg/mL). The samples were vortexed and centrifuged at 14,000 rpm for 20 min.
3. To the quenched blood samples were added 20 μL of p-chlorophenylalanine (5 μg/mL in 50% methanol), the samples were vortexed and centrifuged at 14,000 rpm for 20 min.
4. The supernatant was analyzed by LC/MS/MS.
The following method was used for LC/MS/MS Analysis of the prepared blood samples. An API 4000 or 2000 LC/MS/MS spectrometer equipped with Agilent 1100 binary pumps and a CTC HTS-PAL autosampler were used in the analysis. A ThermoHypersil-BetaSil C18, 100×4.6 mm, 5 μm column was used during the analysis. The mobile phase for the analysis of tranexamic acid and prodrug was (A) 0.1% formic acid in water, and (B) 0.1% formic acid in acetonitrile. The gradient condition was: 2% eluent-B to 95% eluent-B for 2.5 min, then to 98% eluent-B to 4.0 min. At 4.1 min, it was returned to 2% eluent-B and maintained at 2% eluent-B till 6.0 min. The flow rate was 1 mL/min. An ESI source was used on the API 4000. The analysis of tranexamic acid was performed in positive ion mode for and negative ion mode was used for analysis of tranexamic acid prodrugs.
The MRM transition for each analyte was optimized using standard solutions. 20 μL of the sample was injected. Non-compartmental analysis was performed using WinNonlin (v.3.1 Professional Version, Pharsight Corporation, Mountain View, Calif.) on individual animal profiles. Summary statistics on major parameter estimates was performed for Cmax (peak observed concentration following dosing), Tmax (time to maximum concentration is the time at which the peak concentration was observed), AUC(0-t) (area under the serum concentration-time curve from time zero to last collection time, estimated using the log-linear trapezoidal method), AUC(0-∞), (area under the serum concentration time curve from time zero to infinity, estimated using the log-linear trapezoidal method to the last collection time with extrapolation to infinity), and t1/2 (terminal half-life).
The oral or intracolonic bioavailability (F) of tranexamic acid was determined by comparing the area under the tranexamic acid concentration vs. time curve (AUC) following oral or intracolonic administration of tranexamic acid or prodrug with the AUC of the tranexamic acid concentration vs. time curve following intravenous administration of tranexamic acid on a dose normalized basis. […]

Caco-2 cells [5] = tested on: Caco-2 cells
Method: as §1, §2

[6] = male, Sprague-Dawley, whole blood, po, tranexamic acid in blood, dose equivalent to 16 mg/kg, mean (SD)
[7] = male, Sprague-Dawley, whole blood, tranexamic acid in blood, i.c., dose equivalent to 16 mg/kg, mean (SD)
[8] = tranexamic acid in blood, i.c., dose equivalent to 16 mg/kg, mean (SD)
[9] = tranexamic acid in blood, p.o., dose equivalent to 16 mg/kg, mean (SD)

SMILES: CCCC(OC(=O)NC[C@H]1CC[C@H](C(=O)O)CC1)OC(=O)C(C)C (relative stereo) [Compound 36, trans-4-{[1-(2-Methylpropanoyloxy)butoxycarbonyl]aminomethyl}-Cyclohexanecarboxylic Acid]
Ratio A-B/B-A (Caco-2 cells [1]): 4.5

SMILES: CC(C)C(OC(=O)NC[C@H]1CC[C@H](C(=O)O)CC1)OC(=O)C1CCCCC1 (relative stereo) [Compound 48, trans-4-{[1-(Cyclohexylcarbonyloxy)-2-methylpropoxycarbonyl]aminomethyl}-Cyclohexanecarboxylic Acid]
Ratio A-B/B-A (Caco-2 cells [1]): 3.1

SMILES: CC(C)C(OC(=O)NC[C@H]1CC[C@H](C(=O)O)CC1)OC(=O)c1ccccc1 (relative stereo) [Compound 49, trans-4-{[1-(Benzoyloxy)-2-methylpropoxycarbonyl]aminomethyl}-Cyclohexanecarboxylic Acid]
Ratio A-B/B-A (Caco-2 cells [1]): 2.9

SMILES: CCOC(=O)OC(C)OC(=O)[C@H]1CC[C@H](CN)CC1 (relative stereo) [Kabi 2161, 1-(ethoxycarbonyl)oxyethyl trans-4-(aminomethyl)-cyclohexanecarboxylate]
oral bioavailability of tranexamic acid from prodrug ([2]; human patients, oral): markedly improved
effect on menstrual blood loss ([3]; women suffering from idiopathic menorrhagia): effective in reducing menstrual blood loss

SMILES: CC(OC(=O)NC[C@H]1CC[C@H](C(=O)O)CC1)OC(=O)c1ccccc1 (single isomer, unassigned) [Compound 23, trans-4-{[1-(Benzoyloxy)ethoxycarbonyl]aminomethyl}-Cyclohexanecarboxylic Acid]
Ratio A-B/B-A (Caco-2 cells [1]): 4.5

SMILES: CC(C)C(=O)OC(OC(=O)NC[C@H]1CC[C@H](C(=O)O)CC1)C(C)C (single isomer, unassigned) [Compound 44, trans-4-{[1-(2-Methylpropanoyloxy)-2-methylpropoxycarbonyl]aminomethyl}-Cyclohexanecarboxylic Acid]
Ratio A-B/B-A (Caco-2 cells [1]): 2.2

SMILES: NC[C@H]1CC[C@H](C(=O)O)CC1 [Compound 1, trans-4-(aminomethyl)-cyclohexanecarboxylic acid, reference compound]
absorption following rectal administration ([2]; rectal administration in humans (Almer et al.)): poorly absorbed
oral bioavailability ([2]; tranexamic acid, oral): ~30%
terminal elimination half-life ([2]; tranexamic acid): ~2 h
AUC(0-inf) ([4]; male, Sprague-Dawley, whole blood, iv, intravenously administered tranexamic acid, 16 mg/kg): 22200 ng·h/mL
bioavailability ([4]; male, Sprague-Dawley, whole blood, other: intracolonic, 16 mg/kg, i.c., mean (SD)): 5%
bioavailability ([4]; male, Sprague-Dawley, whole blood, po, 16 mg/kg, p.o., mean (SD)): 37%
Cmax ([4]; male, Sprague-Dawley, whole blood, po, tranexamic acid in blood, p.o., dose equivalent to 16 mg tranexamic acid per kg, mean (SD), read-out: Cmax): 2060 ng/mL
half-life ([4]; male, Sprague-Dawley, whole blood, po, tranexamic acid in blood, p.o., dose equivalent to 16 mg/kg, mean (SD)): 1.9 h
Tmax ([4]; male, Sprague-Dawley, whole blood, po, tranexamic acid in blood, p.o., dose equivalent to 16 mg/kg, mean (SD), read-out: Tmax): 1.1 h
AUC(0-inf) [4, 6]: 7800 ng·h/mL
AUC(0-t) [4, 6]: 7300 ng·h/mL
Cmax ([4]; male, Sprague-Dawley, whole blood, tranexamic acid in blood, i.c. (intracolonic), dose equivalent to 16 mg/kg, mean (SD), read-out: Cmax): 220 ng/mL
AUC(0-inf) [4, 7]: 800 ng·h/mL
AUC(0-t) [4, 7]: 600 ng·h/mL
half-life [4, 7]: 1.7 h
Tmax ([4]; male, Sprague-Dawley, whole blood, tranexamic acid in blood, i.c., dose equivalent to 16 mg/kg, mean (SD), read-out: Tmax): 3.1 h
Ratio A-B/B-A (Caco-2 cells [1]): 1.3
reduction of menstrual blood loss ([3]; women with menorrhagia): ~50%

SMILES: CC(C)C(=O)OCOC(=O)NC[C@H]1CC[C@H](C(=O)O)CC1 [Compound 4, trans-4-{[(2-Methylpropanoyloxy)methoxycarbonyl]aminomethyl}-Cyclohexanecarboxylic Acid]
Ratio A-B/B-A (Caco-2 cells [1]): 7.7

SMILES: O=C(NC[C@H]1CC[C@H](C(=O)O)CC1)OCOC(=O)c1ccccc1 [Compound 7, trans-4-{[(Benzoyloxy)methoxycarbonyl]aminomethyl}-Cyclohexanecarboxylic Acid]
Ratio A-B/B-A (Caco-2 cells [1]): 4.2

SMILES: CC(OC(=O)NC[C@H]1CC[C@H](C(=O)[O-])CC1)OC(=O)C(C)C.[Na+] (stereo partly drawn) [Compound 14, Sodium trans-4-{[1-(2-Methylpropanoyloxy)ethoxycarbonyl]-aminomethyl}-Cyclohexanecarboxylate]
Ratio A-B/B-A (Caco-2 cells [5]): 3.4

Now from value to compound:

Ratio A-B/B-A (Caco-2 cells [1]): 4.9
SMILES: CCCC(=O)OC(C)OC(=O)NC[C@H]1CC[C@H](C(=O)O)CC1 (relative stereo) [Compound 10, trans-4-{[1-(Butanoyloxy)ethoxycarbonyl]aminomethyl}-Cyclohexanecarboxylic Acid]

Ratio A-B/B-A (Caco-2 cells [1]): 2.9
SMILES: CCCCC(=O)OC(OC(=O)NC[C@H]1CC[C@H](C(=O)O)CC1)C(C)C (relative stereo) [Compound 42, trans-4-{[1-(Pentanoyloxy)-2-methylpropoxycarbonyl]aminomethyl}-Cyclohexanecarboxylic Acid]

Ratio A-B/B-A (Caco-2 cells [1]): 5.2
SMILES: CC(C)CC(=O)OC(C)OC(=O)NC[C@H]1CC[C@H](C(=O)O)CC1 (single isomer, unassigned) [Compound 19, trans-4-{[1-(3-Methylbutanoyloxy)ethoxycarbonyl]aminomethyl}-Cyclohexanecarboxylic Acid]

F* (bioavailability of tranexamic acid) ([4]; i.c., mean (SD)): 98 (10) %
levels of prodrug following oral gavage administration ([4]; intact prodrug in blood, oral gavage, rat (FIG. 2)): below the level of detection
F* (bioavailability of tranexamic acid) ([4]; p.o., mean (SD)): 73 (9) %
Cmax ([4]; tranexamic acid in blood, i.c. (intracolonic), dose equivalent to 16 mg/kg, mean (SD)): 7.82 (5.2) μg/mL
AUCinf [4, 8]: 21.8 µg·h/mL
AUCt [4, 8]: 21.5 (2.3) hr · μg/mL
T1/2-λ [4, 8]: 4.2 (0.8) h
Tmax [4, 8]: 0.5 (0.1) h
Cmax ([4]; tranexamic acid in blood, p.o., dose equivalent to 16 mg tranexamic acid per kg, mean (SD)): 5.64 (0.58) μg/mL
AUCinf [4, 9]: 17.1 (2.0) hr · μg/mL
AUCt [4, 9]: 15.7 (2.0) hr · μg/mL
T1/2-λ [4, 9]: 2.2 (0.2) h
Tmax [4, 9]: 0.8 (0.3) h
Ratio A-B/B-A (Caco-2 cells [1]): 4.8
SMILES: CC(OC(=O)NC[C@H]1CC[C@H](C(=O)O)CC1)OC(=O)C(C)C (stereo partly drawn) [Compound 13, trans-4-{[1-(2-Methylpropanoyloxy)ethoxycarbonyl]-aminomethyl}-Cyclohexanecarboxylic Acid]

Ratio A-B/B-A (Caco-2 cells [1]): 6.1
SMILES: CC(C)C(=O)O[C@H](C)OC(=O)NC[C@H]1CC[C@H](C(=O)O)CC1 [Compound 15, (+)-trans-4-({[(S)-1-(2-Methylpropanoyloxy)ethoxy]carbonylamino}methyl)-Cyclohexanecarboxylic Acid]

Ratio A-B/B-A (Caco-2 cells [1]): 4.0
SMILES: CC(C)C(=O)O[C@@H](C)OC(=O)NC[C@H]1CC[C@H](C(=O)O)CC1 [Compound 17, (−)-trans-4-({[(1R)-1-(2-Methylpropanoyloxy)ethoxy]carbonylamino}methyl)-Cyclohexanecarboxylic Acid]
